Data on eight compounds can be found in ChEMBL document CHEMBL1201862, “PubChem BioAssay data set” (2004).

Test systems include DU-145; TK-10; SK-OV-3; RPMI-8226; U-251; OVCAR-3; OVCAR-8; RXF 393; NCI-H460; 786-0; A498; NCI-H226; LOX IMVI; COLO 205; SNB-75; SNB-19; UACC-62; SW-620; K562; HOP-62.
Common to all, as to assay: DTP human tumour cell line panel, 48 h

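48-hour exposure; five concentrations; linearly interpolated endpoints. GI50 marks 50% less growth.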 Calls of active or inactive are those of the source. Rule as the data show it: active = GI50 up to about 1.1 µM and inactive = higher.

Usually GI50 stands for the concentration at which growth is held to half of that of the control.

Turning to `Clc1ccc(C2=CC(c3ccccc3)N3C(=N[C@H]4CCCC[C@@H]43)N2)cc1` (stereo partly drawn), the GI50 was 8.41 µM (inactive) in the assay on DU-145; 7.5 µM (inactive) with TK-10; 14.3 µM (inactive) in the assay with SK-OV-3; 2.31 µM (inactive) with RPMI-8226; 4.54 µM (inactive) in the assay on U-251; 6.4 µM (inactive) in the assay with OVCAR-3. Also, the GI50 in the assay with OVCAR-8 is 2.7 µM (inactive); in the assay on RXF 393, 2.47 µM (inactive); with NCI-H460 it was 2.88 µM (inactive); in the assay on 786-0, 2.79 µM (inactive); with A498 it was 10.4 µM (inactive); with NCI-H226, 8.85 µM (inactive). For the same compound, the GI50 in the assay with LOX IMVI was 6.46 µM (inactive); in the assay with COLO 205, 1.77 µM (inactive); in the assay on SNB-75, 3.48 µM (inactive); in the assay on SNB-19 it was 4.55 µM (inactive); in the assay on UACC-62, 5.82 µM (inactive); in the assay with SW-620 it was 3.74 µM (inactive). Further, the GI50 in the assay with K562 was 2.09 µM (inactive).
`COc1ccc(/C=N/N=C(\N)NO)c(O)c1`: the GI50 was > 10 µM (inactive) in the assay on DU-145; > 10 µM (inactive) in the assay on TK-10; 7.38 µM (inactive) with SK-OV-3; > 10 µM (inactive) with RPMI-8226; > 10 µM (inactive) with U-251; 5.51 µM (inactive) with OVCAR-3. The GI50 in the assay on HOP-62 was > 10 µM (inactive); in the assay with OVCAR-8 it was > 10 µM (inactive); with RXF 393, > 10 µM (inactive); in the assay on NCI-H460 it was 4.91 µM (inactive); in the assay with 786-0 it was > 10 µM (inactive); in the assay on A498, 8.77 µM (inactive). In addition, the GI50 is 3.98 µM (inactive) in the assay with NCI-H226; 3.27 µM (inactive) with LOX IMVI; > 10 µM (inactive) in the assay on COLO 205; 0.0678 µM (active) in the assay with SNB-75; > 10 µM (inactive) in the assay with SNB-19; 4.53 µM (inactive) in the assay on UACC-62. In addition, the GI50 in the assay with SW-620 is > 10 µM (inactive); with K562, 4.41 µM (inactive).
As to `CC(C)(CN)SCc1ccccc1`, the GI50 in the assay with DU-145, in the assay on TK-10, with SK-OV-3, in the assay on RPMI-8226, in the assay with U-251 and in the assay with OVCAR-3 was > 100 µM (inactive) in each case. Further, the GI50 in the assay on HOP-62, in the assay with OVCAR-8, in the assay with RXF 393, in the assay on NCI-H460, in the assay on 786-0 and in the assay on A498 was > 100 µM (inactive) in each case. Besides, the GI50 in the assay on NCI-H226, in the assay on LOX IMVI, in the assay with COLO 205, in the assay with SNB-75, with SNB-19 and in the assay with UACC-62 was > 100 µM (inactive) throughout. The GI50 with SW-620 and in the assay on K562 was > 100 µM (inactive) in each case.
`Cc1n[nH]c(=O)n1C1CCCC1`: the GI50 with DU-145, with TK-10, with RPMI-8226, in the assay with U-251, with OVCAR-3 and in the assay on HOP-62 was > 100 µM (inactive) each time. The GI50 with OVCAR-8, in the assay on RXF 393, in the assay on NCI-H460, with 786-0, in the assay with A498 and in the assay with NCI-H226 was > 100 µM (inactive) throughout. In addition, the GI50 in the assay with LOX IMVI, in the assay with COLO 205, in the assay on SNB-75, in the assay on SNB-19, in the assay on SW-620 and with K562 was > 100 µM (inactive) throughout.
`C=CCc1ccccc1CC1(OCC)OC(=O)c2ccccc21` (stereo not drawn): the GI50 was > 100 µM (inactive) with DU-145; > 100 µM (inactive) in the assay with TK-10; > 100 µM (inactive) with SK-OV-3; 17 µM (inactive) in the assay on RPMI-8226; > 100 µM (inactive) in the assay on U-251; 41.2 µM (inactive) in the assay on OVCAR-3. Also, the GI50 with HOP-62 is 94 µM (inactive); with OVCAR-8, > 100 µM (inactive); with RXF 393, > 100 µM (inactive); in the assay on NCI-H460, 77.6 µM (inactive); in the assay with 786-0, > 100 µM (inactive); with A498 it was > 100 µM (inactive). The GI50 was > 100 µM (inactive) in the assay with NCI-H226; 67.1 µM (inactive) with COLO 205; 0.0259 µM (active) in the assay with SNB-75; > 100 µM (inactive) in the assay on SNB-19; > 100 µM (inactive) in the assay on UACC-62; > 100 µM (inactive) in the assay with SW-620. In addition, the GI50 in the assay on K562 was 51.8 µM (inactive).
As for `C[N+]1(CCC[N+]2(C)CC3C4C=CC(CC4)C3C2)CCOCC1` (stereo not drawn), the GI50 with DU-145, in the assay on TK-10, with SK-OV-3, with RPMI-8226, in the assay with U-251 and in the assay with OVCAR-3 was > 100 µM (inactive) in each case. Besides, the GI50 with HOP-62, with OVCAR-8, in the assay on RXF 393, in the assay with 786-0, in the assay on A498 and with NCI-H226 was > 100 µM (inactive) throughout. Besides, the GI50 in the assay with LOX IMVI, in the assay with COLO 205, in the assay on SNB-75, in the assay with SNB-19, in the assay on UACC-62 and with SW-620 was > 100 µM (inactive) each time. Further, in the assay on K562, the GI50 is > 100 µM (inactive).
In the case of `CC1(C)OC(=O)C(C#N)=C1C[n+]1ccccc1`, the GI50 in the assay on DU-145, with TK-10, in the assay with SK-OV-3, in the assay with RPMI-8226, in the assay with U-251 and in the assay on OVCAR-3 was > 10 µM (inactive) in each case. For the same compound, the GI50 in the assay on HOP-62, with OVCAR-8, with RXF 393, with NCI-H460, with 786-0 and in the assay on A498 was > 10 µM (inactive) throughout. Moreover, the GI50 with NCI-H226, in the assay on LOX IMVI, with COLO 205, with SNB-75, in the assay on SNB-19 and in the assay with SW-620 was > 10 µM (inactive) throughout. In addition, the GI50 in the assay on K562 was > 10 µM (inactive).
Turning to `CN1Cc2ccccc2/C=C\c2ccccc21`, the GI50 in the assay with DU-145 was > 100 µM (inactive); in the assay on TK-10 it was 70.5 µM (inactive); in the assay on SK-OV-3 it was 87.3 µM (inactive); in the assay on RPMI-8226, 25.4 µM (inactive); with U-251, > 100 µM (inactive); in the assay on OVCAR-3, 47.3 µM (inactive). In addition, the GI50 in the assay with HOP-62 is > 100 µM (inactive); with OVCAR-8, > 100 µM (inactive); in the assay with RXF 393, 30.1 µM (inactive); in the assay with NCI-H460, 42.7 µM (inactive); with 786-0, 95.9 µM (inactive); in the assay on A498, 69.5 µM (inactive). Moreover, the GI50 in the assay with NCI-H226 is > 100 µM (inactive); in the assay on LOX IMVI it was 72.9 µM (inactive); in the assay on COLO 205, 44.5 µM (inactive); in the assay with SNB-75 it was 65.6 µM (inactive); in the assay on SNB-19, > 100 µM (inactive); in the assay on UACC-62 it was 60.8 µM (inactive). In addition, the GI50 with SW-620 was > 100 µM (inactive).
